target: T1, BRD4 bromodomains (Homo sapiens, UniProt O60885); assay: BROMOscan bromodomain competition binding assay (DiscoveRx); conditions: Kd from 11 compound concentrations ranging from 0 to 10 μM, read-out: BROMOscan Relative Activity
T1 construct: fused on or other part: T7 phage capsid protein (phage-display fusion; the phage DNA is read out by qPCR)
Protocol: Bromodomain assays were conducted to measure interactions between certain compounds and bromodomains.
The assays were conducted according to BROMOscan protocol from Discover Rx. Briefly, BRD4 bromodomains expressed as a fusion capsid protein of T7 phage were bound to acetylated peptide ligand on a solid phase and competition bindings were performed. T7 phage strains displaying bromodomains were grown in parallel in 24-well blocks in an E. coli host derived from the BL21 strain. E. coli were grown to log-phase and infected with T7 phage from a frozen stock (multiplicity of infection=0.4) and incubated with shaking at 32° C. until lysis (90-150 minutes). The lysates were centrifuged (5,000×g) and filtered (0.2 μm) to remove cell debris. […] The liganded beads were blocked with excess biotin and washed with blocking buffer (SeaBlock (Pierce), 1% BSA, 0.05% Tween 20, 1 mM DTT) to remove unbound ligand and to reduce non-specific phage binding. […] Test compounds were prepared as 1000× stocks in 100% DMSO and subsequently diluted 1:10 in monoethylene glycol (MEG) to create stocks at 100× the screening concentration (resulting stock solution is 10% DMSO/90% MEG). The compounds were then diluted directly into the assays such that the final concentration of DMSO and MEG were 0.1% and 0.9%, respectively. All reactions were performed in polystyrene 96-well plates in a final volume of 0.135 ml. […] The bromodomain concentration in the eluates was measured by qPCR. Data was collected at 11 compound concentrations ranging from 0 to 10 μM. Kd values were then derived from a standard dose-response curve generated with Hill equation (Hill Slope was set to ˜1) and a non-linear least square fit with the Levenberg-Marquardt algorithm. Response=Background+Signal−Background/1+(Kd Hill Slope/Dose Hill Slope)

Cc1noc(C)c1-c1ccc2nc(C(=O)NC3CN(C)C3)nc(NCc3cncc(Cl)c3)c2c1 [Example 237, 4-(((5-chloropyridin-3-yl)methyl)amino)-6-(3,5-dimethylisoxazol-4-yl)-N-(1-methylazetidin-3-yl)quinazoline-2-carboxamide] and Cc1noc(C)c1-c1ccc2nc(C(=O)NCC3CN(C)C3)nc(NCc3cccc(Cl)c3)c2c1 [Example 200, 4-((3-chlorobenzyl)amino)-6-(3,5-dimethylisoxazol-4-yl)-N-((1-methylazetidin-3-yl)methyl)quinazoline-2-carboxamide] cannot be ordered by Kd: < 0.5 µM for the first, < 0.5 µM for the second.

Cc1noc(C)c1CNC(=O)c1nc(NCc2cccc(Cl)c2)c2cc(-c3c(C)noc3C)ccc2n1 [Example 259, 4-((3-chlorobenzyl)amino)-6-(3,5-dimethylisoxazol-4-yl)-N-((3,5-dimethylisoxazol-4-yl)methyl)quinazoline-2-carboxamide] and Cc1ncsc1CNC(=O)c1nc(NCc2cccc(Cl)c2)c2cc(-c3c(C)noc3C)ccc2n1 [Example 258, 4-((3-chlorobenzyl)amino)-6-(3,5-dimethylisoxazol-4-yl)-N-((4-methylthiazol-5-yl)methyl)quinazoline-2-carboxamide] cannot be ordered by Kd: < 0.5 µM for the first, < 0.5 µM for the second.

CC(=O)N1CCN(c2nc(NC3(c4cccc(Cl)c4)CC3)c3cc(-c4c(C)noc4C)ccc3n2)CC1 [Example 185, 1-(4-(4-((1-(3-chlorophenyl)cyclopropyl)amino)-6-(3,5-dimethylisoxazol-4-yl)quinazolin-2-yl)piperazin-1-yl)ethanone] and CNC(=O)CN1CCN(c2nc(NCc3cccc(Cl)c3)c3cc(-c4c(C)noc4C)ccc3n2)CC1 [Example 53, 2-(4-(4-((3-chlorobenzyl)amino)-6-(3,5-dimethylisoxazol-4-yl)quinazolin-2-yl)piperazin-1-yl)-N-methylacetamide] cannot be ordered by Kd: < 0.5 µM for the first, < 0.5 µM for the second.

Cc1noc(C)c1-c1ccc2nc(-c3cnn(CC(N)=O)c3)nc(N3CCOC[C@@H]3c3ccccc3)c2c1 [Example 297, (S)-2-(4-(6-(3,5-dimethylisoxazol-4-yl)-4-(3-phenylmorpholino)quinazolin-2-yl)-1H-pyrazol-1-yl)acetamide] and Cc1noc(C)c1-c1ccc2nc(-c3cnn(CCO)c3)nc(N3CCOC[C@@H]3c3ccccc3)c2c1 [Example 306, (S)-2-(4-(6-(3,5-dimethylisoxazol-4-yl)-4-(3-phenylmorpholino)quinazolin-2-yl)-1H-pyrazol-1-yl)ethan-1-ol] cannot be ordered by Kd: < 0.5 µM for the first, < 0.5 µM for the second.

Cc1noc(C)c1-c1ccc2nc(N3CCC(S(C)(=O)=O)CC3)nc(NCc3cccc(Cl)c3)c2c1 [Example 153, N-(3-chlorobenzyl)-6-(3,5-dimethylisoxazol-4-yl)-2-(4-(methylsulfonyl)piperidin-1-yl)quinazolin-4-amine] and Cc1noc(C)c1-c1ccc2nc(N3CCN(C[C@@H](C)O)CC3)nc(NCc3cccc(Cl)c3)c2c1 [Example 46, (R)-1-(4-(4-((3-chlorobenzyl)amino)-6-(3,5-dimethylisoxazol-4-yl)quinazolin-2-yl)piperazin-1-yl)propan-2-ol] cannot be ordered by Kd: < 0.5 µM for the first, < 0.5 µM for the second.

First: Cc1noc(C)c1-c1ccc2nc(N3CCN(CC(N)=O)CC3)nc(N3CCOC[C@@H]3c3ccccc3)c2c1 [Example 307, (S)-2-(4-(6-(3,5-dimethylisoxazol-4-yl)-4-(3-phenylmorpholino)quinazolin-2-yl)piperazin-1-yl)acetamide]
Second: Cc1noc(C)c1-c1ccc2nc(N3CCN(CCN(C)C)CC3)nc(N3CCC(C(=O)O)CC3)c2c1 [Example 254, 1-(2-(4-(2-(dimethylamino)ethyl)piperazin-1-yl)-6-(3,5-dimethylisoxazol-4-yl)quinazolin-4-yl)piperidine-4-carboxylic acid]
The Kd of the first is lower: < 0.5 µM for the first, 0.5 to 5 µM for the second.

First: Cc1cc(NC(=O)c2nc(NCc3cccc(Cl)c3)c3cc(-c4c(C)noc4C)ccc3n2)cc(C)n1 [Example 224, 4-((3-chlorobenzyl)amino)-6-(3,5-dimethylisoxazol-4-yl)-N-(2,6-dimethylpyridin-4-yl)quinazoline-2-carboxamide]
Second: Cc1cnc(CNC(=O)c2nc(NCc3cccc(Cl)c3)c3cc(-c4c(C)noc4C)ccc3n2)o1 [Example 216, 4-((3-chlorobenzyl)amino)-6-(3,5-dimethylisoxazol-4-yl)-N-((5-methyloxazol-2-yl)methyl)quinazoline-2-carboxamide]
The Kd of the first is higher: 0.5 to 5 µM for the first, < 0.5 µM for the second. The second binds more tightly here.

Cc1noc(C)c1-c1ccc2nc(N3CCN(C(=O)N(C)C)CC3)nc(NCc3cncc(Cl)c3)c2c1 [Example 248, 4-(4-(((5-chloropyridin-3-yl)methyl)amino)-6-(3,5-dimethylisoxazol-4-yl)quinazolin-2-yl)-N,N-dimethylpiperazine-1-carboxamide] and Cc1noc(C)c1-c1ccc2nc(N3CCN(CCN(C)C)CC3)nc(NCc3cncc(F)c3)c2c1 [Example 83, 2-(4-(2-(dimethylamino)ethyl)piperazin-1-yl)-6-(3,5-dimethylisoxazol-4-yl)-N-((5-fluoropyridin-3-yl)methyl)quinazolin-4-amine] cannot be ordered by Kd: < 0.5 µM for the first, < 0.5 µM for the second.

Compared with Cc1noc(C)c1-c1ccc2nc(N3CCN(CCN(C)C)CC3)nc(NCc3ccc(Cl)cc3)c2c1 [Example 95, N-(4-chlorobenzyl)-2-(4-(2-(dimethylamino)ethyl)piperazin-1-yl)-6-(3,5-dimethylisoxazol-4-yl)quinazolin-4-amine], Cc1noc(C)c1-c1ccc2nc(N3CCN(CCN(C)C)CC3)nc(NCc3ccccc3Cl)c2c1 [Example 74, N-(2-chlorobenzyl)-2-(4-(2-(dimethylamino)ethyl)piperazin-1-yl)-6-(3,5-dimethylisoxazol-4-yl)quinazolin-4-amine] is lower in Kd: 0.5 to 5 µM for the first, < 0.5 µM for the second. The second binds more tightly here.

Cc1nc(NCc2cccc(Cl)c2)c2cc(-c3c(C)noc3C)ccc2n1 [Example 9, N-(3-chlorobenzyl)-6-(3,5-dimethylisoxazol-4-yl)-2-methylquinazolin-4-amine] and Cc1noc(C)c1-c1ccc2nc(-n3cc(CCO)cn3)nc(NCc3cccc(Cl)c3)c2c1 [Example 42, 2-(1-(4-((3-chlorobenzyl)amino)-6-(3,5-dimethylisoxazol-4-yl)quinazolin-2-yl)-1H-pyrazol-4-yl)ethanol] cannot be ordered by Kd: < 0.5 µM for the first, < 0.5 µM for the second.

Cc1noc(C)c1-c1ccc2c(NCc3cccc(Cl)c3)nc(N3CCN(CCN(C)C)CC3)nc2c1 [Example 39, N-(3-chlorobenzyl)-2-(4-(2-(dimethylamino)ethyl)piperazin-1-yl)-7-(3,5-dimethylisoxazol-4-yl)quinazolin-4-amine] and Cc1noc(C)c1-c1ccc2c(NCc3cccc(Cl)c3)nc(N3CCN(CCO)CC3)nc2c1 [Example 40, 2-(4-(4-((3-chlorobenzyl)amino)-7-(3,5-dimethylisoxazol-4-yl)quinazolin-2-yl)piperazin-1-yl)ethanol] fall in the same range of Kd: 0.5 to 5 µM for the first, 0.5 to 5 µM for the second.

First: Cc1noc(C)c1-c1ccc2nc(-c3cnn(CC(C)(C)O)c3)nc(N(Cc3cccc(Cl)c3)C3CC3)c2c1 [Example 312, 1-(4-(4-((3-chlorobenzyl)(cyclopropyl)amino)-6-(3,5-dimethylisoxazol-4-yl)quinazolin-2-yl)-1H-pyrazol-1-yl)-2-methylpropan-2-ol]
Second: Cc1noc(C)c1-c1ccc2nc(N3CCc4[nH]ncc4C3)nc(NCc3cccc(Cl)c3)c2c1 [Example 290, N-(3-chlorobenzyl)-6-(3,5-dimethylisoxazol-4-yl)-2-(1,4,6,7-tetrahydro-5H-pyrazolo[4,3-c]pyridin-5-yl)quinazolin-4-amine]
The Kd of the first is lower: < 0.5 µM for the first, 0.5 to 5 µM for the second. The first binds more tightly here.

First: Cn1cc(-c2ccc3nc(Cl)nc(NCc4cccc(Cl)c4)c3c2)ccc1=O [Example 100, 5-(2-chloro-4-((3-chlorobenzyl)amino)quinazolin-6-yl)-1-methylpyridin-2(1H)-one]
Second: Cn1cc(-c2ccc3nc(N4CCN(CCO)CC4)nc(NCc4cncc(Cl)c4)c3c2)ccc1=O [Example 126, 5-(4-(((5-chloropyridin-3-yl)methyl)amino)-2-(4-(2-hydroxyethyl)piperazin-1-yl)quinazolin-6-yl)-1-methylpyridin-2(1H)-one]
The Kd of the first is higher: > 5 µM for the first, < 0.5 µM for the second.

Compared with Cc1noc(C)c1-c1ccc2nc(N3CCN(C(=O)c4cccnc4)CC3)nc(NCc3cccc(Cl)c3)c2c1 [Example 35, (4-(4-((3-chlorobenzyl)amino)-6-(3,5-dimethylisoxazol-4-yl)quinazolin-2-yl)piperazin-1-yl)(pyridin-3-yl)methanone], Cc1noc(C)c1-c1ccc2nc(N3CCN(CCC(C)C)CC3)nc(NCc3cccc(Cl)c3)c2c1 [Example 21, N-(3-chlorobenzyl)-6-(3,5-dimethylisoxazol-4-yl)-2-(4-isopentylpiperazin-1-yl)quinazolin-4-amine] is higher in Kd: < 0.5 µM for the first, 0.5 to 5 µM for the second.

With Cc1noc(C)c1-c1ccc2nc(-c3c(C)noc3C)nc(NCc3cccs3)c2c1 [Example 69, 2,6-bis(3,5-dimethylisoxazol-4-yl)-N-(thiophen-2-ylmethyl)quinazolin-4-amine] the Kd was 0.5 to 5 µM.

— patent US11028079B2 (ConverGene LLC, priority 2015, dated 2021)
